The subject of experiment [1] is DMXAA induced ISG gene expression in mouse RAW-Lucia cells. Description: Inhibition of DMXAA-induced ISG gene expression in mouse RAW-Lucia cells (QUANTI-Luc). The format is cell-based. The settings on record: STING agonist DMXAA 50 µM, incubated for 24 hours. The protocol: 10 µL of compound diluted with PBS/physiological saline was added to each well of a 96 well cell culture plate. The STING agonist was DMXAA, which was added to the counted cell suspension at a final concentration of 50 µM. For the control group without compounds, 10 µL of PBS/physiological saline containing 2% DMSO was added. 3 replicate wells were set in each group. RAW-Lucia cells were counted and adjusted to a cell concentration of 4×10^5/mL, and […] of cells were added to each well for incubation. Therefore, the final volume of each test well was 200 µL, the content of DMSO was 0.1%, and the final concentration of the compound tested was 10/3.3/1.1/0.4/0.13/0.04/0.013/0.004 µM. The final concentration of STING agonist DMXAA was 50 µM. The mixture was incubated for 24 hours. In addition, 200 µL of culture medium was added to the blank group. 3 replicate wells were set in each group.
After 24 hours, 20 µL of culture medium was taken from each well and transferred to a new 96 well plate with photopermeable bottom. 50 µL of the luciferase detection reagent QUANTI-Luc™ was added, and the […] was immediately measured (avoid light).
Result analysis: Inhibition rate (%) = (Con(Lum)−Treated(Lum))/Con(Lum) × 100% [formula]
(§1) The IC50 calculation of inhibitors was implemented using the Graphpad Prism 8 software's calculation method log (inhibitor) vs. response - Variable slope (four parameters), with a constrain interval of 0-100.

Experiment [2] has as its system ISG gene expression induced by MSA-2 in human THP1-Dual cells. The experiment in a line: Inhibition of MSA-2-induced ISG gene expression in human THP1-Dual cells (QUANTI-Luc). It is filed as cell-based. The conditions noted are these: STING agonist MSA-2 10 µM, incubated for 24 hours. The procedure:
10 µL of compound diluted with PBS/physiological saline was added to each well of a 96 well cell culture plate. The STING agonist was MSA-2, which was added to the counted cell suspension at a final concentration of 10 µM. For the control group without compounds, 10 µL of PBS/physiological saline containing 2% DMSO was added. 3 replicate wells were set in each group. THP1-Dual cells were counted and adjusted to a cell concentration of 4×10^5/mL, and 190 µL of cells containing STING agonist were added to each well for incubation. Therefore, the final volume of each test well was 200 µL, the content of DMSO was 0.1%, and the final concentration of the compound tested was 10/3.3/1.1/0.4/0.13/0.04/0.013/0.004 µM, incubated for 24 hours. In addition, 190 µL of cells without STING agonist and 10 µL of physiological saline containing 2% DMSO were added to the blank group. 3 replicate wells were set in each group.
After 24 hours, 20 µL of culture medium for THP1-Dual cells was taken from each well and transferred to a new 96 well plate with photopermeable bottom. 50 µL of the luciferase detection reagent QUANTI-Luc™ was added, and the […] was immediately measured (avoid light). Result analysis:Inhibition rate (%) = (Con(Lum)−Treated(Lum))/Con(Lum) × 100% [formula]
as §1

Regarding `O=C(Nc1c[nH]c2ccccc12)c1cc2c(s1)SCC(=O)N2CC1CCOCC1` [Example I-119, N-(1H-indol-3-yl)-2-oxo-1-((tetrahydro-2H-pyran-4-yl)methyl)-2,3-dihydro-1H-thieno[2,3-b][1,4]thiazin-6-carboxamide], in experiment [1], the IC50 (commonly the concentration that gives 50% inhibition) came out at 45.5 nM. Regarding “1-((4-chlorothien-3-yl)methyl)-N-(1H-indol-3-yl)-3,3-dimethyl-2-oxoindolin-6-carboxamide [Example I-89]”, the IC50 in experiment [2] is 119 nM.

In the case of `CCc1ccc(NC(=O)Nc2c[nH]c3ccccc23)cc1` [Example H151, H-151, reference compound], the half-maximal inhibitory concentration (IC50) came to 635 nM in experiment [2] and 271 nM in experiment [1]. In turn, `O=C(Nc1c[nH]c2ccccc12)c1cc2c(s1)SCC(=O)N2CC1CC1` [Example I-116, 1-(cyclopropylmethyl)-N-(1H-indol-3-yl)-2-oxo-2,3-dihydro-1H-thieno[2,3-b][1,4]thiazin-6-carboxamide] yielded a concentration for half-maximal inhibition (IC50) in experiment [2] of 206 nM. Turning to `CCC1(C)C(=O)N(Cc2ccccc2)c2cc(C(=O)Nc3c[nH]c4ccccc34)ccc21` (stereo not drawn) [Example I-101], the values for the IC50 in experiment [2] and in experiment [1] were 16.4 nM and 38.5 nM, respectively. The corresponding values for `O=C(Nc1c[nH]c2ccc(F)cc12)c1cc2c(s1)SCC(=O)N2Cc1ccoc1` [Example I-122, N-(5-fluoro-1H-indol-3-yl)-1-(furan-3-ylmethyl)-2-oxo-2,3-dihydro-1H-thieno[2,3-b][1,4]thiazin-6-carboxamide] are 272 nM and 15.9 nM.

`CC1(C)C(=O)N(Cc2cc(F)cc(C(F)(F)F)c2)c2cc(C(=O)Nc3c[nH]c4ccc(F)cc34)ccc21` [Example I-110]: the IC50 in experiment [2] stood at 36.8 nM; in experiment [1], 14.3 nM.

The compound `CC1(C)C(=O)N(Cc2cc(F)cc(C(F)(F)F)c2)c2cc(C(=O)Nc3c[nH]c4ccccc34)sc21` [Example I-88, 4-(3-fluoro-5-(trifluoromethyl)benzyl)-N-(1H-indol-3-yl)-6,6-dimethyl-5-oxo-5,6-dihydro-4H-thieno[3,2-b]pyrrol-2-carboxamide] yielded an IC50 in experiment [2] of 143 nM.

Take `O=C(Nc1c[nH]c2ccc(F)cc12)c1cc2c(s1)SCC(=O)N2Cc1cc(F)cc(C(F)(F)F)c1` [Example I-124, N-(5-fluoro-1H-indol-3-yl)-1-(3-fluoro-5-(trifluoromethyl)benzyl)-2-oxo-2,3-dihydro-1H-thieno[2,3-b][1,4]thiazin-6-carboxamide]: the 50% inhibitory concentration (IC50) in experiment [2] was 48 nM; in experiment [1], under 3 nM. For the compound `O=C(Nc1c[nH]c2ccccc12)c1cc2c(s1)SCC(=O)N2Cc1cccc2ccoc12` [Example I-120, 1-(benzofuran-7-ylmethyl)-N-(1H-indol-3-yl)-2-oxo-2,3-dihydro-1H-thieno[2,3-b][1,4]thiazin-6-carboxamide], the IC50 amounted to 96.5 nM in experiment [2] and 8.7 nM in experiment [1]. As for `O=C(Nc1c[nH]c2ccccc12)c1cc2c(s1)SCC(=O)N2Cc1ccc2occc2c1` [Example I-113, 1-(benzofuran-5-ylmethyl)-N-(1H-indol-3-yl)-2-oxo-2,3-dihydro-1H-thieno[2,3-b][1,4]thiazin-6-carboxamide], the IC50 in experiment [2] was found to be 39.4 nM; in experiment [1], 27.9 nM.

On to `CC1(C)C(=O)N(Cc2ccccc2)c2cc(C(=O)Nc3c[nH]c4ccc(F)cc34)ccc21` [Example I-105], for which the IC50 in experiment [2] was found to be 70.4 nM; in experiment [1], 3.38 nM.

Turning to `CC1(C)C(=O)N(Cc2csc3ccccc23)c2cc(C(=O)Nc3c[nH]c4ccccc34)ccc21` [Example I-109, 1-(benzo[b]thien-3-ylmethyl)-N-(1H-indol-3-yl)-3,3-dimethyl-2-indolin-6-carboxamide], the IC50 in experiment [2] came out at 32.1 nM; in experiment [1], 11.8 nM.

With `O=C(Nc1c[nH]c2ccccc12)c1cc2c(s1)SCC(=O)N2Cc1cc(F)cc(C(F)(F)F)c1` [Example I-115, 1-(3-fluoro-5-(trifluoromethyl)benzyl)-N-(1H-indol-3-yl)-2-oxo-2,3-dihydro-1H-thieno[2,3-b][1,4]thiazin-6-carboxamide], the concentration for half-maximal inhibition (IC50) stood at 12.2 nM in experiment [2] and 7.51 nM in experiment [1]. For `CC1(C)C(=O)N(Cc2ccoc2)c2cc(C(=O)Nc3c[nH]c4ccccc34)sc21` [Example I-86, 4-(furan-3-ylmethyl)-N-(1H-indol-3-yl)-6,6-dimethyl-5-oxo-5,6-dihydro-4H-thieno[3,2-b]pyrrol-2-carboxamide], the half-maximal inhibitory concentration (IC50) in experiment [2] was determined as 221 nM. With `CC1(C)C(=O)N(Cc2ccc3occc3c2)c2cc(C(=O)Nc3c[nH]c4ccccc34)ccc21` [Example I-93, 1-(benzofuran-5-ylmethyl)-N-(1H-indol-3-yl)-3,3-dimethyl-2-oxoindolin-6-carboxamide], in experiment [2], the IC50 was determined as 74.8 nM. `CC1(C)C(=O)N(Cc2cc(F)cc(C(F)(F)F)c2)c2cc(C(=O)Nc3c[nH]c4cc(F)c(F)cc34)ccc21` [Example I-111]: the IC50 in experiment [2] was determined as 123 nM; in experiment [1] it was 29.1 nM. In experiment [2], `CC1(C)C(=O)N(Cc2cccc3ccoc23)c2cc(C(=O)Nc3c[nH]c4cc(F)c(F)cc34)ccc21` [Example I-127, 1-(benzofuran-7-ylmethyl)-N-(5,6-difluoro-1H-indol-3-yl)-3,3-dimethyl-2-oxoindolin-6-carboxamide] yielded an IC50 of 291 nM. `CC1(C)C(=O)N(Cc2cc(F)cc(C(F)(F)F)c2)c2cc(C(=O)Nc3c[nH]c4ccccc34)ccc21` [Example I-104]: the half-inhibitory concentration (IC50) is 33.1 nM in experiment [2] and 8.69 nM in experiment [1]. `CC1(C)C(=O)N(Cc2ccccc2-c2ccccc2)c2cc(C(=O)Nc3c[nH]c4ccccc34)ccc21` [Example I-95, 1-([1,1'-biphenyl]-2-ylmethyl)-N-(1H-indol-3-yl)-3,3-dimethyl-2-oxoindolin-6-carboxamide]: in experiment [2], the IC50 stood at 228 nM. Turning to `CC(c1ccccc1)N1C(=O)C(C)(C)c2ccc(C(=O)Nc3c[nH]c4ccccc34)cc21` (stereo not drawn) [Example I-100, N-(1H-indol-3-yl)-3,3-dimethyl-2-oxo-1-(1-phenethyl)indolin-6-carboxamide], the half-maximal inhibitory concentration (IC50) in experiment [2] came to 59.6 nM; in experiment [1], 15.1 nM.

On to `CC1(C)C(=O)N(Cc2cccc3ccoc23)c2cc(C(=O)Nc3c[nH]c4ccc(Cl)cc34)ccc21` [Example I-128, 1-(benzofuran-7-ylmethyl)-N-(5-chloro-1H-indol-3-yl)-3,3-dimethyl-2-oxoindolin-6-carboxamide], for which the IC50 in experiment [2] and in experiment [1] was 39.4 nM throughout. `CC1(C)C(=O)N(Cc2ccccc2)c2cc(C(=O)Nc3c[nH]c4ccccc34)sc21` [Example I-87, 4-benzyl-N-(1H-indol-3-yl)-6,6-dimethyl-5-oxo-5,6-dihydro-4H-thieno[3,2-b]pyrrol-2-carboxamide] yielded a 50% inhibitory concentration (IC50) in experiment [2] of 149 nM.

In turn, `CC1(C)C(=O)N(CC2CN(c3cc(F)cc(C(F)(F)F)c3)C2)c2cc(C(=O)Nc3c[nH]c4ccc(F)cc34)ccc21` [Example I-28] gave an IC50 in experiment [1] of 62 nM.

Take `CC1(C)C(=O)N(Cc2csc(C(F)(F)F)c2)c2cc(C(=O)Nc3c[nH]c4ccccc34)sc21` [Example I-90, N-(1H-indol-3-yl)-6,6-dimethyl-5-oxo-4-((5-(trifluoromethyl)thien-3-yl)methyl)-5,6-dihydro-4H-thieno[3,2-b]pyrrol-2-carboxamide]: the IC50 in experiment [2] is 98 nM.

`CC1(C)C(=O)N(Cc2ccc3[nH]ccc3c2)c2cc(C(=O)Nc3c[nH]c4ccccc34)ccc21` [Example I-94, 1-(indol-5-ylmethyl)-N-(1H-indol-3-yl)-3,3-dimethyl-2-oxoindolin-6-carboxamide] displayed an IC50 in experiment [2] of 106 nM.

Consider `CC1(C)C(=O)N(Cc2coc(Cl)c2)c2cc(C(=O)Nc3c[nH]c4ccccc34)sc21` [Example I-91, 4-((5-chlorofuran-3-yl)methyl)-N-(1H-indol-3-yl)-6,6-dimethyl-5-oxo-5,6-dihydro-4H-thieno[3,2-b]pyrrol-2-carboxamide], for which the IC50 in experiment [2] is 117 nM. `O=C(Nc1c[nH]c2ccccc12)c1cc2c(s1)SCC(=O)N2Cc1cccs1` [Example I-114, N-(1H-indol-3-yl)-2-oxo-1-(thien-2-ylmethyl)-2,3-dihydro-1H-thieno[2,3-b][1,4]thiazin-6-carboxamide]: in experiment [2], the IC50 was found to be 164 nM.
